Reference: patent publication US8623331B2, “Compressed chewing gum tablet” (Fertin Pharma A/S, priority 2007, dated 2014)
Entries after “also recorded” stand apart in the source; their conditions may differ.

Key:
[1] = Release control, gum base content different with respect to composition (two-module compressed chewing gum tablet); conditions: first layer: NPR outside the gum base granules; second layer: Na2CO3 approx. 50 Wt-% outside and approx. 50 Wt-% incorporated in the granules
Description: (§1) Control of the release was tested for chewing gum tablets comprising two modules with different gum base content and a different active ingredient in each of them.
In this example a gum base content different with respect to composition was investigated. In the first layer the active ingredient (NPR) was added to the chewing gum composition outside the gum base granules and in the second layer the active ingredient (Na2CO3 pH control agent) was added approximately 50 Wt-% to the chewing gum composition outside the gum base granules and approximately 50 Wt-% incorporated in the granules.
To ensure that the result of this example was not due to different API in the two layers, the example was further supplemented with a test with the same amount of a same API incorporated in the granules and added directly to the composition respectively, where it was again seen that the release was dependent on the chewing gum composition

[2] = Release control, different size of applied chewing gum granules (two-module compressed chewing gum tablet); conditions: first layer: NPR with granules of relatively smaller average diameter; second layer: Na2CO3 with granules of relatively larger average diameter
Description: as §1
In this example a gum base content different with respect to size of applied chewing gum granules was investigated.
In the first layer the active ingredient (NPR) was present with chewing gum granules with a relatively smaller average diameter and in the second layer the active ingredient (Na2CO3 pH control agent) was present with chewing gum granules with a relatively larger average diameter.
To ensure that the result of this example was not due to different API in the two layers, the example was further supplemented with a test with the same API in two compositions of different chewing gum granule sizes. Here it was again seen that the release was dependent on the size of the chewing gum granules used in the layers of the gum base content in the chewing gum composition.

[3] = Release control, gum base content different with respect to weight (two-module compressed chewing gum tablet); conditions: first layer: NPR with a large amount of gum base; second layer: Na2CO3 with a small amount of gum base
Description: as §1
In this example a gum base content different with respect to weight was investigated. In the first layer the active ingredient (NPR) was present with a large amount of gum base and in the second layer the active ingredient (Na2CO3 pH control agent) was present with a small amount of gum base.
To ensure that the result of this example was not due to different API in the two layers, the example was further supplemented with a test with two different weights of the same API in the compositions in the two layers, where it was again seen that the release was dependent on the weight of the gum base content in the chewing gum composition.

release of active ingredient from the chewing gum tablet [2]: faster than the release of the NPR | release of active ingredient from the chewing gum tablet [3]: faster than the release of the NPR
Structure (SMILES): O=C([O-])[O-].[Na+].[Na+] [Na2CO3]
release of active ingredient from the chewing gum tablet [1]: fast release of part of the pH control agent; also recorded: slower release of the remaining part of the pH control agent
